In patent US7892782B2 (priority 1998, dated 2011):

Experiments:
[1] = tested on: M. tuberculosis persister cells; settings: data not shown
[2] = tested on: Staphylococcus aureus; assay type: cell-based; settings: stationary phase ≅10^9 bacteria/ml, 100 μg/ml ampicillin, 3 days
[3] = tested on: Escherichia coli K12; assay type: cell-based; settings: stationary phase ≅10^9 bacteria/ml, 50 μg/ml kanamycin, 3 days
[4] = tested on: M. tuberculosis; assay: RT-PCR of gene transcripts before and after rifampicin treatment; assay type: cell-based, Mycobacterium tuberculosis; settings: 12 hours in growth medium alone
Procedure: The metabolic state of bacilli before and after rifampicin treatment was also assessed by examining total RNA which was extracted. RT-PCR was performed on the following genes; rpoB which encodes the rifampicin target (RNA polymerase sub-unit B); 16 kDa protein α-crystallin homolog); 16S rRNA and two Sigma 70 homologues, sigA and sigB.

[5] = tested on: M. tuberculosis H37Rv; assay type: cell-based, Mycobacterium tuberculosis
[6] = tested on: M. tuberculosis; assay: Incorporation of [3H]-uridine into RNA after addition of rifampicin; assay type: cell-based, Mycobacterium tuberculosis
Procedure: For incorporation of radioactive uridine, 10 ml of the culture for each time point was washed twice to remove the remaining rifampicin and then resuspended in 10 ml 7H9 medium followed by incubation with 10 μCi/ml of [^3H]-uridine for 20 hours. For 5* the culture was not washed after incubation with rifampicin and 10 μCi/ml of [^3H]-uridine was added to the culture which was further incubated in the presence of rifampicin for 20 hours. The RNA was extracted by methods known in the art. The RNA [^3H]-uridine incorporation was determined as counts per minute of trichloroacetic acid precipitated RNA. The results were confirmed in three independent experiments.

O=C(O)CN(CCN(CC(=O)O)CC(=O)O)CC(=O)O [EDTA]
effect on persister cell walls and efficacy of rifampicin [1]: permeabilizes persister cell walls and increases the efficacy of rifampicin

CC1(C)S[C@@H]2[C@H](NC(=O)[C@H](N)c3ccccc3)C(=O)N2[C@H]1C(=O)O [ampicillin]
phenotypically resistant subpopulation remaining [2]: ~10^5 bacteria/ml

NC[C@H]1O[C@H](O[C@H]2[C@H](O)[C@@H](O[C@H]3O[C@H](CO)[C@@H](O)[C@H](N)[C@H]3O)[C@H](N)C[C@@H]2N)[C@H](O)[C@@H](O)[C@@H]1O [kanamycin]
phenotypically resistant subpopulation remaining [3]: ~10^5 bacteria/ml

CO[C@H]1/C=C/O[C@@]2(C)Oc3c(C)c(O)c4c(O)c(c(/C=N/N5CCN(C)CC5)c(O)c4c3C2=O)NC(=O)/C(C)=C\C=C\[C@H](C)[C@H](O)[C@@H](C)[C@@H](O)[C@@H](C)[C@H](OC(C)=O)[C@@H]1C [rifampicin]
increase of level of transcription (16K, sigA and rpoB transcripts) after removal of rifampicin [4]: 5- to 10 fold
Broth counts [5]: 10^2 bacteria/ml
Broth dilution counts of rifampicin treated cultures [5]: 10^2 bacteria/ml
[3H]-uridine incorporation ([6]; 100 μg/ml rifampicin 1 day, washed, then 20 h with [3H]-uridine): 2228 ± 88 counts per minute
[3H]-uridine incorporation ([6]; 100 μg/ml rifampicin 2 days, washed, then 20 h with [3H]-uridine): 2316 ± 120 counts per minute
[3H]-uridine incorporation ([6]; 100 μg/ml rifampicin 3 days, washed, then 20 h with [3H]-uridine): 2430 ± 54 counts per minute
[3H]-uridine incorporation ([6]; 100 μg/ml rifampicin 4 days, washed, then 20 h with [3H]-uridine): 2318 ± 126 counts per minute
[3H]-uridine incorporation ([6]; 100 μg/ml rifampicin 5 days, washed, then 20 h with [3H]-uridine): 2388 ± 20 counts per minute
[3H]-uridine incorporation ([6]; 5*: 5 days, not washed, [3H]-uridine 20 h in the presence of rifampicin): 518 ± 10 counts per minute
increase of radioactive uridine incorporation after removal of rifampicin ([6]; medium alone versus in the presence of rifampicin (5 versus 5* days)): about 5 fold
